Data published in patent US12636370B2, “Combination therapy for treatment of cancer” (Institute For Cancer Research, priority 2019, dated 2026).

Experiments:
Format in all cases: cell-based
[1] = system: OVCAR8 cells; test: CellTiter-Glo cell viability, OVCAR8 parental cells; conditions: dose escalation, 5 days
[2] = system: BET proteins (BRD2, BRD3, BRD4); test: Western blot of BET protein levels, OVCAR8 parental cells
[3] = system: OVCAR8 cells; test: Single-run proteome analysis and RNA-seq, OVCAR8 cells; conditions: 48 hours, single-run proteome analysis
Procedure: Enrichment maps of pathways repressed by short-term BBD generated from single-run proteome profiles of OVCAR8 cells treated with BBDs (MZ1 or ARV825) for 48 hours were prepared (data not shown). Statistical differences in protein log 2 LFQ z-scores comparing BBDs or BBIs to control treated cells was determined by paired T-Test Benjamini-Hochberg adjusted p values at FDR of <0.05 using Perseus Software. […] Enrichment maps were generated in Cytoscape using the Enrichment Map app v2.2.1. […] Statistical differences in protein log 2 LFQ z-scores comparing BBDs or BBIs to control treated cells was determined.

[4] = system: translation markers, RNA pol II, MYC; test: Western blot of translation, BRD4-targets and MYC signaling, OVCAR8 cells; conditions: 500 nM, 48 hours
[5] = system: kinome; test: MIB-MS kinome profiling, OVCAR8 cells; conditions: 48 hours
[6] = system: RTKs, EGFR, ERBB2, ERBB3, FGFR1, and IGF1R; test: Western blot of kinase (RTK) protein levels, OVCAR8 cells; conditions: 500 nM, 48 hours
[7] = system: RTKs FGFR1, FGFR2, FGFR3, IGF1R and ERBB4; test: Western blot of RTK protein levels, KURAMOCHI and COV362 cells; conditions: 500 nM, 48 hours
[8] = system: OVCAR8 MZ1-R cells; test: CellTiter-Glo cell viability, OVCAR8 MZ1-R cells; conditions: OVCAR8 MZ1-R, escalating doses, 5 days
[9] = system: OVCAR8 ARV-R cells; test: CellTiter-Glo cell viability, OVCAR8 ARV-R cells; conditions: escalating doses, 5 days
[10] = system: OVCAR8 JQ1-R cells; test: CellTiter-Glo cell viability, OVCAR8 JQ1-R cells; conditions: escalating doses, 5 days
[11] = system: BET proteins (BRD2, BRD3, BRD4); test: Western blot of BET proteins and BRD4 targets, OVCAR8 MZ1-R cells; conditions: Western blot
[12] = system: BET proteins (BRD2, BRD3, BRD4); test: Western blot of BET proteins, OVCAR8 ARV-R cells
[13] = system: BET proteins, FOSL1, MYC; test: Western blot of BET proteins and BRD4 targets, JQ1-R cells
[14] = system: OVCAR8 ARV-R cells; test: Apoptosis by cleaved PARP Western blot, OVCAR8 ARV-R cells
[15] = system: OVCAR8 JQ1-R cells; test: Apoptosis by cleaved PARP Western blot, OVCAR8 JQ1-R cells
[16] = system: PEO1 JQ1-R cells; test: CellTiter-Glo cell viability, PEO1 JQ1-R cells; conditions: escalating doses, 5 days
[17] = system: KURAMOCHI, COV362 and OVCAR5 MZ1-R cells; test: CellTiter-Glo cell viability, KURAMOCHI, COV362 and OVCAR5 MZ1-R cells; conditions: COV362 and OVCAR5, escalating doses, 5 days
[18] = system: BET proteins (BRD2, BRD4); test: Western blot of BET proteins, KURAMOCHI, COV362 and OVCAR5 MZ1-R cells
[19] = system: OVSAHO cells; test: Combination treatment of OVSAHO cells; conditions: BRD4 overexpressing HGSOC cell line OVSAHO
[20] = system: SW48 (KRAS WT) cells; test: Cell-Titer Glo cell viability, SW48 (KRAS WT) cells
Procedure: (§1) K-ras mutations promote resistance to BET protein degraders that can be overcome by MTORC1 inhibitors. Briefly, isogenic SW48 colorectal cancer cells expressing wild-type or mutant (G12D) K-ras were treated with increasing doses of MZ1 and cell viability was assessed. Expression of K-ras mutants promote resistance to MZ1 therapy (FIG. 18, Panel A). Immunoblot analysis depicts activation of translation by forced expression of K-ras G12D mutants in SW48 cells (FIG. 18, Panel B). SW48 cells expressing wild-type or K-ras G12D mutants were treated with DMSO, 2 μM RAD001, increasing doses of MZ1 or 2 μM RAD001+increasing doses of MZ1 for 4 hours and BRD4 protein assessed by Western blot. A Cell-Titer Glo assay was performed for cell viability of SW48 (KRAS G12D) cell lines treated with increasing concentrations of RAD001, MZ1 or the combination of RAD001 and MZ1 and cultured for 120 hours. Data were analyzed as % cell viability of DMSO control, presented as means of 3 independent assays. […] Data were analyzed as % cell viability of DMSO control, presented as means of 3 independent assays. […]

[21] = system: SW48 (KRAS G12D) cells; test: Cell-Titer Glo cell viability, SW48 (KRAS G12D) cells
Procedure: as §1

[22] = biological target: T1, BRD4 (Homo sapiens, UniProt O60885); test: Western blot of BRD4 protein, SW48 K-ras G12D cells; conditions: 4 hours
T1 construct: endogenous in cells
Procedure: as §1

GI50 ([21]; SW48 cells harboring K-Ras G12D mutation): 63 nM
BRD4 degradation [22]: impaired the degradation of BRD4
Compound: Cc1ncsc1-c1ccc(CNC(=O)[C@@H]2C[C@@H](O)CN2C(=O)[C@@H](NC(=O)COCCOCCOCCNC(=O)C[C@@H]2N=C(c3ccc(Cl)cc3)c3c(sc(C)c3C)-n3c(C)nnc32)C(C)(C)C)cc1 [MZ1]
GI50 [1]: 142 nM
BET protein levels [2]: degraded BET proteins in a concentration-dependent manner
global protein level changes [3]: uniquely downregulated proteins involved in ribosome and translation signaling
MYC protein levels [4]: reduced MYC protein levels
phosphorylation of translation markers ([4]; relative to cis-MZ1 or JQ1): distinctly reduced phosphorylation of FOX01/3 (T24/32), P70S6 Kinase (T389), pEIF4E (S209) and p4EBP1 (T37/46)
kinase MIB-binding [5]: uniquely increased MIB-binding of INSR, CDK7, EPHA4 and EPHA2
RTK protein levels [6]: MZ1-specific reduction of RTKs, EGFR, ERBB2, ERBB3, FGFR1, and IGF1R
RTK protein levels [7]: downregulation of RTKs protein levels such as FGFR1, FGFR2, FGFR3, IGF1R and ERBB4
cell viability of MZ1-R cells compared with parental cells [8]: rightward shift
cell viability of ARV-R cells compared with parental cells [9]: failed to reduce BET proteins, block growth or induce apoptosis
cell viability of JQ1-R cells [10]: inhibited cell viability
BET protein levels [11]: insufficient to degrade BRD2, BRD3 or BRD4
BET protein levels [12]: failed to reduce BET proteins, block growth or induce apoptosis
BET protein levels [13]: degraded BET proteins
BRD4 target (FOSL1, MYC) protein levels [13]: reduced MYC/FOSL1 protein levels
apoptosis [14]: failed to reduce BET proteins, block growth or induce apoptosis
apoptosis [15]: induced apoptosis
cell killing / viability [16]: can be killed by treatment with BET PROTAC MZ1
cell viability / growth of MZ1-R cells compared with parental cells [17]: rightward shift
BET protein levels [18]: failed to mediated degradation of BET proteins
dose sufficient to induce sensitivity towards GSK529A, lapatinib or RAD001 [19]: 10 nM
inhibition of viability ([20]; SW48 K-Ras WT cells, single agent, low concentrations): > 50%
GI50 ([20]; SW48 parental (wild-type K-Ras) cells): 0.63 nM
shift in GI50, K-Ras mutant vs parental cells ([21]; SW48 isogenic cells): 10 fold
